# Experimental data as given in paper PMC8763920, “Unprotected peptide macrocyclization and stapling via a fluorine-thiol displacement reaction” (Nature Communications, 2022).
# Columns and labels:
# [1] = test system: β-catenin mediated transcription; experiment: TOPFlash luciferase reporter assay; type: cell-based; settings: DLD-1 cells, 15 μM peptide, 24 h
# Experimental: For evaluation of Axin peptide analogues, DLD-1 cells were cultured in 96-well flat bottom plates up to 70–80% confluency and were transfected with 200 ng M50 TOPFlash plasmid (a gift from Professor Raymond Habas, Temple Biology) and 50 ng pRL-TK plasmid (Promega). 12 h after transfection, cells were treated with DMSO vehicle or 15 μM of Axin peptide analogues for another 24 h. Luciferase activity was measured using the Dual-Glo luciferase assay kit (Promega) on a Biotek Synergy H1 plate reader using the Gen5 software. Data were processed as firefly: Renilla luciferase ratio for each control or treatment group, and were further normalized against the vehicle control group (100%) as the Relative Activities.
# HEK293 cells = experiment: 5-day growth of HEK293 control cells; type: cell-based; settings: 5 days, CellTiter Glo, up to 16 µM
# Experimental: (§1) For growth inhibition by Axin peptides, DLD-1 cells were cultured and maintained as mentioned before. Right before the assay, cells were resuspended in fresh RPMI media supplemented with 10% FBS, 100 IU/mL penicillin, and 100 µg/mL streptomycin, and plated onto 96-well white flat-bottom plates at 1000 cells per well (90 µL media/well). After overnight incubation, peptide samples were serially diluted as 10× stock in PBS buffer (10% DMSO), and were added to the plated cells at 10 µL stock solution/well in triplicate to make final treatment concentrations of 0, 0.0625, 0.125, 0.25, 0.5, 1, 2, 4, 8, 16 µM. […] The samples on the plates were incubated at 37 °C, 5% CO2 for 5 days, and the cell viability was evaluated by CellTiter Glo (Promega). The luminescence signals were recorded by the H1 synergy plate reader (Biotek) using the Gen5 software, and were normalized against the control groups (100%) for which cells were only treated with the vehicle (PBS/1% DMSO). Control HEK293 cells were cultured in DMEM media supplemented with 10% FBS, 1% penicillin/streptomycin at 37 °C, 5% CO2, then incubated with peptide samples and measured for viability in the same manner as mentioned above. […] After 24 h of incubation, the cell viabilities were measured and normalized against the vehicle control groups the same as mentioned above.
# DLD-1 cells [2] = experiment: Cell viability assay for imaging studies, Axin analogues; type: cell-based; settings: 10 µM, 12 h incubation, CellTiter-Glo
# Experimental: For Jurkat cells, after imaging studies with SAHBA analogues (5 µM, 4 h of incubation), viabilities were measured by mixing with the CellTiter-Glo reagent and the chemiluminescence signals were recorded and processed the same as metioned above. Similarly, confocal imaging of DLD-1 cells for the penetration pathway studies were followed by viability measurements. Cells treated with vehicle groups were also analysed and counted as the 100% control.
# DLD-1 cells [3] = experiment: Time-dependent cytotoxicity/growth inhibition of Axin peptide analogues; type: cell-based; settings: 0, 5, 10, 15 µM; after 48 h of incubation; CellTiter Glo
# Experimental: as §1
# DLD-1 cells [4] = experiment: 5-day growth inhibition of DLD-1 cancer cells; type: cell-based; settings: 5 days, CellTiter Glo, 1000 cells per well, n = 3; read-out: EC50, inhibition of DLD-1 cell growth
# Experimental: For growth inhibition by Axin peptides, DLD-1 cells were cultured and maintained as mentioned before. Right before the assay, cells were resuspended in fresh RPMI media supplemented with 10% FBS, 100 IU/mL penicillin, and 100 µg/mL streptomycin, and plated onto 96-well white flat-bottom plates at 1000 cells per well (90 µL media/well). After overnight incubation, peptide samples were serially diluted as 10× stock in PBS buffer (10% DMSO), and were added to the plated cells at 10 µL stock solution/well in triplicate to make final treatment concentrations of 0, 0.0625, 0.125, 0.25, 0.5, 1, 2, 4, 8, 16 µM. The wells on the edges of plates were filled with PBS buffer to avoid unwanted evaporation of samples. The samples on the plates were incubated at 37 °C, 5% CO2 for 5 days, and the cell viability was evaluated by CellTiter Glo (Promega). The luminescence signals were recorded by the H1 synergy plate reader (Biotek) using the Gen5 software, and were normalized against the control groups (100%) for which cells were only treated with the vehicle (PBS/1% DMSO). Control HEK293 cells were cultured in DMEM media supplemented with 10% FBS, 1% penicillin/streptomycin at 37 °C, 5% CO2, then incubated with peptide samples and measured for viability in the same manner as mentioned above. For Axin peptide analogues’ time-dependent cytotoxicity, peptide analogues were mixed with cells (1000 cells per well) at a final concentration of 0, 5, 10, and 15 µM. The cell viabilities were meaured via CellTiter Glo after incubation of 1 day, 2 days, and 4 days, respectively. […] After 24 h of incubation, the cell viabilities were measured and normalized against the vehicle control groups the same as mentioned above.
# circular dichroism = settings: water; pH ns; 25 °C; 70 uM
# [5] = test system: p53 wild-type HCT-116 cells; type: cell-based; settings: human
SMILES,inhibition of β-catenin mediated transcription (TOPFlash) [1],effect on growth of HEK293 control cells (HEK293 cells),effect on viability of DLD-1 cells (DLD-1 cells [2]),effects on DLD-1 cells over a time course of 24–96 h (DLD-1 cells [3]),EC50 (DLD-1 cells [4]),helicity (circular dichroism),EC50 [5]
CC[C@H](C)[C@@H]1NC(=O)[C@@H](NC(=O)[C@H](CCC(N)=O)NC(=O)[C@@H]2CCCN2C(=O)[C@H](Cc2c[nH]c3ccccc23)NC(=O)[C@H](CCCNC(=N)N)NC(=O)COCCOCCNC(=S)Nc2ccc3c(c2)C(=O)OC32c3ccc(O)cc3Oc3cc(O)ccc32)CNC(=O)CSCc2cccc(c2)CSCC(=O)NC[C@@H](C(=O)N[C@@H](Cc2c[nH]cn2)C(=O)N[C@H](C(=O)N[C@@H](CCCNC(=N)N)C(=O)N[C@@H](CCCNC(=N)N)C(=O)N[C@H](C(=O)N[C@@H](Cc2c[nH]c3ccccc23)C(=O)N[C@@H](CCCNC(=N)N)C(N)=O)C(C)C)C(C)C)NC(=O)[C@H](CC(=O)O)NC(=O)[C@H](CC(C)C)NC1=O [compound 65],strong inhibition,little effects,did not affect the viability,significant effects,2300 ± 400 nM,–,–
CC(=O)N[C@@H](CCC(N)=O)C(=O)N[C@@H](CO)C(=O)N[C@@H](CCC(N)=O)C(=O)N[C@@H](CCC(N)=O)C(=O)N[C@H](C(=O)N[C@@H](Cc1ccccc1)C(=O)N[C@H]1CNC(=O)CSCc2ccc(cc2)CSCC(=O)NC[C@@H](C(=O)N[C@@H](CCC(N)=O)C(=O)N[C@@H](CC(N)=O)C(N)=O)NC(=O)[C@H](CC(C)C)NC(=O)[C@H](CC(C)C)NC(=O)[C@H](CCCNC(=N)N)NC(=O)[C@H](Cc2c[nH]c3ccccc23)NC(=O)[C@H](CC(C)C)NC(=O)[C@H](CC(N)=O)NC1=O)[C@@H](C)O [compound 82],–,–,–,–,–,61%,660 ± 190 nM
CC[C@H](C)[C@@H]1NC(=O)[C@@H](NC(=O)[C@H](CCC(N)=O)NC(=O)[C@@H]2CCCN2C(=O)[C@H](Cc2c[nH]c3ccccc23)NC(=O)[C@H](CCCNC(=N)N)NC(=O)COCCOCCNC(=S)Nc2ccc3c(c2)C(=O)OC32c3ccc(O)cc3Oc3cc(O)ccc32)CNC(=O)CSCc2cccc(c2)CSCC(=O)NC[C@H](C(=O)N[C@@H](Cc2c[nH]cn2)C(=O)N[C@H](C(=O)N[C@@H](CCCNC(=N)N)C(=O)N[C@@H](CCCNC(=N)N)C(=O)N[C@H](C(=O)N[C@@H](Cc2c[nH]c3ccccc23)C(=O)N[C@@H](CCCNC(=N)N)C(N)=O)C(C)C)C(C)C)NC(=O)[C@H](CC(=O)O)NC(=O)[C@H](CC(C)C)NC1=O [compound 67],strong inhibition,little effects,did not affect the viability,significant effects,9800 ± 2000 nM,–,–
